Measured values reported in article PMC5564600 (Oncotarget, 2017).
Read-outs that look alike come from different tables or passages of the source.

Columns and labels:
Type in all cases: binding
panel of 442 kinases [1] = molecular target: T1, panel of 442 kinases (Homo sapiens, UniProt O60285); assay: biochemical; conditions: ARK5; for remaining activity at 1 µM: read-out: % of control at 1 µM
T1 construct: purchased Ambit Biosciences (scanMAXX KINOMEscan)
T1 sequence (O60285 1-661): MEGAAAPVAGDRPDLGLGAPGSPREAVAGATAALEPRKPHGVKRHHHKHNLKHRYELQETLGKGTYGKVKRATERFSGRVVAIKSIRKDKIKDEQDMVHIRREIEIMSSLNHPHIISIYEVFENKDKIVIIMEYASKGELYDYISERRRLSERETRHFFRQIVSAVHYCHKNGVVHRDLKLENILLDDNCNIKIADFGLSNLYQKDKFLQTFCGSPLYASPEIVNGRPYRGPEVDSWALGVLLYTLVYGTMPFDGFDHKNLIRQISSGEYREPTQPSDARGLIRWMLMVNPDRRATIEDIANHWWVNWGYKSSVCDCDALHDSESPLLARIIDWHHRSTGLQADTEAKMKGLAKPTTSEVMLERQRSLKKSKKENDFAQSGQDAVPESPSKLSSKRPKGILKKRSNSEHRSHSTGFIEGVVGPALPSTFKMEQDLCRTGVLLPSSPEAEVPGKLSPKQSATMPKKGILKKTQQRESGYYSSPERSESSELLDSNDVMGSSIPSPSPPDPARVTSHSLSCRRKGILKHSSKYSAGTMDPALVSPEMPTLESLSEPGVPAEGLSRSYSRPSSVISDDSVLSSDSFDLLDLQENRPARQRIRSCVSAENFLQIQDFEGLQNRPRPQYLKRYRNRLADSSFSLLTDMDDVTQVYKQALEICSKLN

panel of 442 kinases [2] = molecular target: T2, panel of 442 kinases (Homo sapiens, UniProt P50613); assay: biochemical; conditions: CDK7; for remaining activity at 1 µM: read-out: % of control at 1 µM
T2 construct: purchased Ambit Biosciences (scanMAXX KINOMEscan)

panel of 442 kinases [3] = molecular target: T3, panel of 442 kinases (Homo sapiens, UniProt Q9H093); assay: biochemical; conditions: kinase SNARK; for remaining activity at 1 µM: read-out: SNARK (% of control at 1 µM)
T3 construct: purchased Ambit Biosciences (scanMAXX KINOMEscan)
T3 sequence (Q9H093 1-628): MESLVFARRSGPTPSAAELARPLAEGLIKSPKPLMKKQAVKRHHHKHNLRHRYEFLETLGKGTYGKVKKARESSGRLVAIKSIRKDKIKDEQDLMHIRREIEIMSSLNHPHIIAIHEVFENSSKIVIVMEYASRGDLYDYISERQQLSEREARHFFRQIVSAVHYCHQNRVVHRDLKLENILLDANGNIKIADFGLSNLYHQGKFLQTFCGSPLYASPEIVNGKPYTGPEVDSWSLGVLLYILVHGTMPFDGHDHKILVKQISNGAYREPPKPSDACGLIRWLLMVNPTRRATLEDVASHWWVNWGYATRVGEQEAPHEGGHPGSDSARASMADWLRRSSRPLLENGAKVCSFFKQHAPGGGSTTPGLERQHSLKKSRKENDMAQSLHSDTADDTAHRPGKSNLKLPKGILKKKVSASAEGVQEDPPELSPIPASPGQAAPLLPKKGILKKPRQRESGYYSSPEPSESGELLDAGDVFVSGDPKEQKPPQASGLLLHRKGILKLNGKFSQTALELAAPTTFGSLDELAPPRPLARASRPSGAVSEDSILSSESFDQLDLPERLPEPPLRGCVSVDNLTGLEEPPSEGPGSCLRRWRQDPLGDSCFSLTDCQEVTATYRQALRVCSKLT

CLK2 = molecular target: T4, CLK2 (Homo sapiens, UniProt P49760); assay: KINOMEscan, CLK2; conditions: for remaining binding at 1 µM: read-out: % of control at 1 µM
T4 construct: purchased Ambit Biosciences (scanMAXX KINOMEscan)

FLT3 (D835Y mutant) = molecular target: T5, FLT3 (D835Y mutant) (Homo sapiens, UniProt P36888, D835Y); assay: KINOMEscan, FLT3 D835Y; conditions: for remaining binding at 1 µM / remaining binding at 10 µM: FLT3(D835Y); for remaining binding at 1 µM: read-out: % of control at 1 µM; for remaining binding at 10 µM: read-out: % of control at 10 µM
T5 construct: purchased Ambit Biosciences (scanMAXX KINOMEscan)
T5 sequence (P36888 27-993 D835Y): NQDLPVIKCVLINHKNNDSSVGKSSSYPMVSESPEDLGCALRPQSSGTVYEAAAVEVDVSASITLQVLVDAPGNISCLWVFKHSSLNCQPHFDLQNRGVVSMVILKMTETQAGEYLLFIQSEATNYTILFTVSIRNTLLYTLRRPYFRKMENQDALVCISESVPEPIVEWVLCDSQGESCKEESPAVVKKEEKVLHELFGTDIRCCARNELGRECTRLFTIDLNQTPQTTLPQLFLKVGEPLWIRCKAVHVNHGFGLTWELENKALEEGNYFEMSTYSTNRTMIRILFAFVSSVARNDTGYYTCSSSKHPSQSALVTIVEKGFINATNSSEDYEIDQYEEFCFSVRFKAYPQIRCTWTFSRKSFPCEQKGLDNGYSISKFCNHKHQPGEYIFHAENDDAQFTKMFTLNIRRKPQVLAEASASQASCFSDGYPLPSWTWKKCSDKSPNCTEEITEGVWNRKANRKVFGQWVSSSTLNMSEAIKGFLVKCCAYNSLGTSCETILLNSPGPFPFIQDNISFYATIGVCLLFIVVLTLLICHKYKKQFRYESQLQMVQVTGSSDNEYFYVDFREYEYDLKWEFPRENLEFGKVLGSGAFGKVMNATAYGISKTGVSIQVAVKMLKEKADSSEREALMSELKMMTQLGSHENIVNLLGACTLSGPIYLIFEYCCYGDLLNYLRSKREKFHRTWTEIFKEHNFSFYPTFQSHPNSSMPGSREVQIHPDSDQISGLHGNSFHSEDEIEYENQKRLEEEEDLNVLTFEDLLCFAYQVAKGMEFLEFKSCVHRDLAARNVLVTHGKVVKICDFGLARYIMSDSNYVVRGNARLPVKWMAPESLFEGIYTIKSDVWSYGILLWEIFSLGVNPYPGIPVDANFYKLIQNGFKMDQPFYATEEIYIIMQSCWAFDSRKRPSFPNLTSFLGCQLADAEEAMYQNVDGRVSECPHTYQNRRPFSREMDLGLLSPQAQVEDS

PIK4CB = molecular target: T6, PIK4CB (Homo sapiens, UniProt Q9UBF8); assay: KINOMEscan, PIK4CB; conditions: for remaining binding at 1 µM: read-out: % of control at 1 µM; for remaining binding at 10 µM: read-out: % of control at 10 µM
T6 construct: purchased Ambit Biosciences (scanMAXX KINOMEscan)

[4] = 10 µM, read-out: % of control at 10 µM

T4 sequence (P49760 whole entry): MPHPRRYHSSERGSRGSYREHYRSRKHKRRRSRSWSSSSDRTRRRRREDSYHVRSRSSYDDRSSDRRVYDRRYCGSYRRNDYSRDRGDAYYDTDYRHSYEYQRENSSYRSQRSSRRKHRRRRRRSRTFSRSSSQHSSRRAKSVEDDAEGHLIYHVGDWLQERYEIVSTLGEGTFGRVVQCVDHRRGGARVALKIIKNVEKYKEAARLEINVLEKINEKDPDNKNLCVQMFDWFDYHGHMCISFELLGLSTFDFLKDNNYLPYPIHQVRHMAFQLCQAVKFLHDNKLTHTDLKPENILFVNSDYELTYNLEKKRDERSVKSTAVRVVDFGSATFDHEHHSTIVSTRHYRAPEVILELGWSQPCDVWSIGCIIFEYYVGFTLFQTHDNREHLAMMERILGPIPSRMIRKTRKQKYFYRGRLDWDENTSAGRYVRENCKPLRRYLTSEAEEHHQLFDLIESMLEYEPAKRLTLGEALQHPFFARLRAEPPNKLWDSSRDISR
T2 sequence (P50613 whole entry): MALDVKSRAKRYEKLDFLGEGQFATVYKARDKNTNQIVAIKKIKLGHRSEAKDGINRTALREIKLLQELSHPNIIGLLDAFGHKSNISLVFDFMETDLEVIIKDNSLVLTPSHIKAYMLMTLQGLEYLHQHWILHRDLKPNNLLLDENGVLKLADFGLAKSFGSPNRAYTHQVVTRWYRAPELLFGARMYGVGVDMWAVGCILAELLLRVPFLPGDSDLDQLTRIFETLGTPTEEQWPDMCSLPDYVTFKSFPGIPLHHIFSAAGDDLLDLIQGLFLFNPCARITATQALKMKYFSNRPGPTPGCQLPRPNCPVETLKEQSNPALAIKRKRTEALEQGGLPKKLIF
T6 sequence (Q9UBF8 whole entry): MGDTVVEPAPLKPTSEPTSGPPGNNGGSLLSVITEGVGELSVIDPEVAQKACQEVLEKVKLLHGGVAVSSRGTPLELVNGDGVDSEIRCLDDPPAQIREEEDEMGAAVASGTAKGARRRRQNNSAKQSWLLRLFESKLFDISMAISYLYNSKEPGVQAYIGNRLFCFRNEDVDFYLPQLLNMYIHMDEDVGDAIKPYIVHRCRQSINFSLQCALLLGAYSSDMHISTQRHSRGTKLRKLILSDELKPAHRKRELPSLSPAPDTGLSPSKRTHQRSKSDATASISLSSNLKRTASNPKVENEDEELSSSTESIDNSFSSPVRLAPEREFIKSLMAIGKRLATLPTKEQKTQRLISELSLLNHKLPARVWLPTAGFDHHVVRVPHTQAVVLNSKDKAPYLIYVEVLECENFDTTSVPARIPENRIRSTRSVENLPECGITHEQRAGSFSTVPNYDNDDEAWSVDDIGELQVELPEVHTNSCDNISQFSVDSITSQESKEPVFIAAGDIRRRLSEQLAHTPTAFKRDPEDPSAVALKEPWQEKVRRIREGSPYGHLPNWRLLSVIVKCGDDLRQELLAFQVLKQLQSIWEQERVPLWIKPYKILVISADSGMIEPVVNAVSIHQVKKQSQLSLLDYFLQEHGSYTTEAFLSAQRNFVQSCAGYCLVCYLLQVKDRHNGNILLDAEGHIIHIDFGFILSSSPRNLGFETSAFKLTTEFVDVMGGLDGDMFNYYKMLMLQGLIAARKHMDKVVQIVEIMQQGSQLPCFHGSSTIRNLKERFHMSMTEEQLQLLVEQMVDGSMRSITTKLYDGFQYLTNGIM

| SMILES | remaining activity at 1 µM (panel of 442 kinases [1]) [%] | remaining activity at 10 µM (panel of 442 kinases [1]; [4]) [%] | remaining activity at 1 µM (panel of 442 kinases [2]) [%] | remaining activity at 10 µM (panel of 442 kinases [2]; [4]) [%] | remaining activity at 1 µM (panel of 442 kinases [3]) [%] | remaining activity at 10 µM (panel of 442 kinases [3]; 10 µM, read-out: SNARK (% of control at 10 µM)) [%] | binding to CLK2 (CLK2; 10 μM) [%] | remaining binding at 1 µM (CLK2; CLK2) [%] | remaining binding at 10 µM (CLK2; CLK2, 10 µM, read-out: % of control at 10 µM) [%] | remaining binding at 1 µM (FLT3 (D835Y mutant)) [%] | remaining binding at 10 µM (FLT3 (D835Y mutant)) [%] | remaining binding at 1 µM (PIK4CB; kinase PIK4CB, 1 µM) [%] | remaining binding at 10 µM (PIK4CB; kinase PIK4CB) [%] | inhibition at 1 µM (FLT3 (D835Y mutant); 1 μM) [%] | remaining binding at 1 µM (PIK4CB) [%] | off-target binding to PIK4CB (PIK4CB; 1 μM) |
| --- | --- | --- | --- | --- | --- | --- | --- | --- | --- | --- | --- | --- | --- | --- | --- | --- |
| Nc1cc(C(F)(F)F)c(-c2cc(N3CCOCC3)nc(N3CCOCC3)n2)cn1 [Buparlisib] | 100 | 100 | 93 | 100 | 100 | 100 | > 80 | 29 | 18 | 70 | 42 | 86 | 100 |  |  |  |
| Cn1c(=O)n(-c2ccc(C(C)(C)C#N)cc2)c2c3cc(-c4cnc5ccccc5c4)ccc3ncc21 [Dactolisib, 2-methyl-2-[4-(3-methyl-2-oxo-8-quinolin-3-yl-2,3-dihydroimidazo[4,5-c]quinolin-1-yl)-phenyl] propionitrile] | 32 |  | 57 |  | 34 |  |  | 81 |  | 13 |  |  |  | > 80 | 64 |  |
| COc1ncc(-c2ccc3nccc(-c4ccnnc4)c3c2)cc1NS(=O)(=O)c1ccc(F)cc1F [Omipalisib] | 100 |  | 100 |  | 100 |  |  | 92 |  | 100 |  | 0.7 |  |  |  | non-selective |
| CS(=O)(=O)N1CCN(Cc2cc3nc(-c4cccc5[nH]ncc45)nc(N4CCOCC4)c3s2)CC1 [Pictilisib, 2-(1H-indazol-4-yl)-6-(4-methanesulfonyl-piperazin-1-ylmethyl)-4-morpholin-4-yl-t hieno[3,2-d]pyrimidine] |  |  |  |  |  |  |  |  |  |  | 5.4 | 100 | 75 |  |  |  |
| FC(F)c1nc2ccccc2n1-c1nc(N2CCOCC2)nc(N2CCOCC2)n1 [ZSTK474, 2-(difluoromethyl)-1-[4,6-di(4-morpholinyl)-1,3,5-triazin-2-yl]-1H-benzimidazole] | 100 |  | 68 |  | 100 |  |  | 100 |  | 84 |  | 84 |  |  |  |  |
